According to US5013756A, “Catechol derivatives, a process of preparation thereof, and therapeutical compositions containing the same” (priority 1985, dated 1991):

Tests used:
[1] = molecular target: T1, 5-lipoxygenase (human leucocytes) (Homo sapiens, UniProt P09917); assay: Experiment No. 2: inhibition of 5-lipoxygenase in human leucocytes stimulated by ionophore and arachidonic acid (5-HETE, LTB4); assay type: cell-based
T1 construct: human leucocytic lipoxygenase; endogenous in cells; host or cells: human (polynuclear) leucocytes
T1 sequence (P09917 1-674): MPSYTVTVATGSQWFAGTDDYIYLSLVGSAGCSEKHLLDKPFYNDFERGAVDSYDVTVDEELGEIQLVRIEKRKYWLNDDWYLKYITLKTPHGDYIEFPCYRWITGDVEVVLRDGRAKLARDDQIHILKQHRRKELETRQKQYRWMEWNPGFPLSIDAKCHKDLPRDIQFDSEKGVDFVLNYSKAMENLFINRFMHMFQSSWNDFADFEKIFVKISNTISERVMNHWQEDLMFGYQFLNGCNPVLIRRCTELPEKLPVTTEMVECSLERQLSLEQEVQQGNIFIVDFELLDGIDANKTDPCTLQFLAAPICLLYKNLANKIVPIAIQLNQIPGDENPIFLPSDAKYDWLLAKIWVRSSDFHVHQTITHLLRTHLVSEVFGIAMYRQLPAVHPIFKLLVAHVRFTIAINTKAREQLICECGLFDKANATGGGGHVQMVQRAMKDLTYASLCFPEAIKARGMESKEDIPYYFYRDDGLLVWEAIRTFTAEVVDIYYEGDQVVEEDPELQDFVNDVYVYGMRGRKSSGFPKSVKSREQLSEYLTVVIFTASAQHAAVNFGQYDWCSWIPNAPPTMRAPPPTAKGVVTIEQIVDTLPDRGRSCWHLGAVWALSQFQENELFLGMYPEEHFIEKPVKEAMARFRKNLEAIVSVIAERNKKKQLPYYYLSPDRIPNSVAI
Procedure: (§1) (b) Inhibition on 5-, 12- and 15- lipoxygenases human polynuclear
(§2) Protocol for experiment No. 2:
(§3) 2. Stimulation with 10 μg of arachidonic acid and 1 μg of ionophore (A23187)/ml for 4 minutes.
(§4) 3. Stopping of the incubation with 1 volume of methanol and analysis by RP-HPLC.
(§5) 4. Measurement of the height of the peaks and comparison with the internal standard (PGB2).
(§6) It will be noted that in experiment No. 1, the leucocytes have been stimulated by the ionophore alone whereas in experiment No. 2, the cells have been stimulated with ionophore and arachidonic acid.

[2] = molecular target: T2, 15-lipoxygenase (human leucocytes) (Homo sapiens, UniProt P16050); assay: Experiment No. 2: inhibition of 15-lipoxygenase in human leucocytes stimulated by ionophore and arachidonic acid (15-HETE); assay type: cell-based; settings: Experiment No. 2, 15-HETE, ionophore A23187 and arachidonic acid
T2 construct: endogenous in cells; host or cells: human (polynuclear) leucocytes
T2 sequence (P16050 1-662): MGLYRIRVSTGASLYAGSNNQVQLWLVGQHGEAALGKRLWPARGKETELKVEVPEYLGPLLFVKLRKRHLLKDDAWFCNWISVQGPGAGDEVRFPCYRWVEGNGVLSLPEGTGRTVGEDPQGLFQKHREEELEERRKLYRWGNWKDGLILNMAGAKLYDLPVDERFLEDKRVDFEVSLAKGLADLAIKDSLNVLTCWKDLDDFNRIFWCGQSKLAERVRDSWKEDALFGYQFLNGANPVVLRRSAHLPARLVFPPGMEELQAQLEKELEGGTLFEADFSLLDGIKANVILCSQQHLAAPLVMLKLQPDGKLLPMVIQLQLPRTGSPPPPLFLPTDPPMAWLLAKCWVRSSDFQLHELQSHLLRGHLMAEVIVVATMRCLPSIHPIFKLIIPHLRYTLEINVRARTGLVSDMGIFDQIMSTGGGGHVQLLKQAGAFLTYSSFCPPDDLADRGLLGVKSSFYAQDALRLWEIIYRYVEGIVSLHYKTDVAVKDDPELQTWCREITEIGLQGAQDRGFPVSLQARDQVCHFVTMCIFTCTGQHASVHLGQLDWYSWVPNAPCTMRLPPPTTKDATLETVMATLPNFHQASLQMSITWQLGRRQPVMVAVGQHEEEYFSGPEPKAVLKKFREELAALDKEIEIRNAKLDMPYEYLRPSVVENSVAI
Procedure: as §1, §2, §3, §4, §5, §6

HHT (human leucocytes) = assay: Experiment No. 2: HHT formation in human leucocytes stimulated by ionophore and arachidonic acid; assay type: cell-based; settings: Leucocyte, ionophore A23187 and arachidonic acid
Procedure: as §1, §2, §3, §4, §5

soybean lipoxygenase = molecular target: T3, soybean lipoxygenase (Glycine max, UniProt P08170); assay: In vitro screening of compounds as potential inhibitors of soybean lipoxygenase (spectrophotometric assay, 15-HPETE at 236 nm); assay type: biochemical; settings: pH 9.00, 10^-4 M arachidonic acid, 90 min, room temperature; for IC50: IC50 (concentration of 50% inhibition)
T3 sequence (P08170 1-839): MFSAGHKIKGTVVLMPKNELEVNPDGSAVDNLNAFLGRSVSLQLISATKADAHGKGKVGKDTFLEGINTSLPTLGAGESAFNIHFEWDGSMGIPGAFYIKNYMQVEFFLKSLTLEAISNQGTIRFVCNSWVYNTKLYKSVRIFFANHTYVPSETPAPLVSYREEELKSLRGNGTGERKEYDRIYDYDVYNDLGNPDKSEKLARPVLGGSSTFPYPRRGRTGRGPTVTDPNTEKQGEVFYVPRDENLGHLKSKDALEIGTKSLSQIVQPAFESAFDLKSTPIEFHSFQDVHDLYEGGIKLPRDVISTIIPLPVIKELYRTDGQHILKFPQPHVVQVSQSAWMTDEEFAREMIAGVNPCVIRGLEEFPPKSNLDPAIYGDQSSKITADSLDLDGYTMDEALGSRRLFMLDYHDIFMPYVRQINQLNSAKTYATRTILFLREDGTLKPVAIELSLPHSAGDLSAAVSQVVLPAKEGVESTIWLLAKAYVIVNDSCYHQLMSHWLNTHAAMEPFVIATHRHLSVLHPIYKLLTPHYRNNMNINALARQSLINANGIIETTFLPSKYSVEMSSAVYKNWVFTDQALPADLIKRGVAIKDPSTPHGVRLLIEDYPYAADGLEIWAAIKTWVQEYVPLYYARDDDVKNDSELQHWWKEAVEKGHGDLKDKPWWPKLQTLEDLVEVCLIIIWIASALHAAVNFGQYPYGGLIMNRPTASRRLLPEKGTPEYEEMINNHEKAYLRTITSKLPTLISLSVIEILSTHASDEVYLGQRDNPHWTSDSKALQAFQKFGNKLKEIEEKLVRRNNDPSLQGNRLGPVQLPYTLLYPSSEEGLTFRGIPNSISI
Procedure: A spectrophotometric method has been developed to determine the enzyme activity according to Corey E.J. et al. (J. Amer. Chem. Soc, 104, 1750-1752; 1982). In a final volume of 1.8 ml was mixed 0.2 M of aerated Borax buffer pH =9.00 with 500 units of soybean lipoxygenase. When inhibitors were tested, they were added in 0.6 ml at final concentrations ranging from 10^-3 M to 10^-8 M followed by a preincubation of 10 minutes at room temperature. The reaction was initiated by 10^-4 M arachidonic acid. Following incubation at room temperature for 90 minutes, 15-HPETE was determined by absorbance measurements at 236 nm.
This method was validated with known inhibitors of lipoxygenase. For each test substance a control was included with boiled lipoxygenase in order to take into account any absorption of the compound at the wavelength used.

[3] = molecular target: T4, cyclooxygenase (human platelets microsomes) (Homo sapiens, UniProt P23219); assay: Cycloxygenase inhibition in human platelets microsomes; assay type: biochemical; settings: cyclooxygenase (PGE2/TxB2), pH 7.9, 37° C.
T4 construct: human platelets microsomes; from tissue; host or cells: human platelet microsomes (microsomal powder)
T4 sequence (P23219 24-599): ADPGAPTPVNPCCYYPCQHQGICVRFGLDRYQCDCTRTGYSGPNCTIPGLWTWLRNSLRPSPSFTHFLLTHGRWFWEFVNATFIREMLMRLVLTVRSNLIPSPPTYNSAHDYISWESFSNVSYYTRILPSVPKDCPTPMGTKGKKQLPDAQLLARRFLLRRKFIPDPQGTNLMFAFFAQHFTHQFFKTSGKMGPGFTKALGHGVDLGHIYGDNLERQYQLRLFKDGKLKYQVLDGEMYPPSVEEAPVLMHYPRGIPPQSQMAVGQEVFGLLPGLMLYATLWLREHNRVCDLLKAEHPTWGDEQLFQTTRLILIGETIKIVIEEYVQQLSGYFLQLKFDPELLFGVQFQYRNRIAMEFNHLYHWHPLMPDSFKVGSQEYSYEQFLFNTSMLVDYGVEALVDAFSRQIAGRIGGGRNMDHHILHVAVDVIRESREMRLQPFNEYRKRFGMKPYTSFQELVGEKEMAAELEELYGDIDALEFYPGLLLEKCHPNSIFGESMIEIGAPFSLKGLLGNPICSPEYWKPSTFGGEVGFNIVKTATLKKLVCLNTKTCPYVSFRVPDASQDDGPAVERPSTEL
Procedure: The enzymatic assay was carried out in silanized glassware according to the procedure of P. Ho, P. Walters and H, Sullivan (Prostaglandins 12, 951 1976). The reaction mixture containing 50 mM Tris HCl buffer, pH 7.9, 5mM 2-Tryptophan, […] methemoglobin, 0.2 mg of microsomal powder, and the test compound in a total volume of 0.2 ml was incubated at 37° C. for 5 minutes before the addition of 10 μl of 20 μM^14 C arachidonic acid (0.08 μCI). After 5 minute incubation, the reaction was terminated by the addition of 10 μl of 1M citric acid.
The mixture was extracted four times with 0.5 ml of anhydrous diethyl ether and dried with sodium sulphate. The residue was resuspended in approximately 40 μl of ether and submitted to chromatography on silica gel plates. The elution system consisted of diethyl ether/methanol/acetic acid (90:1:2). The RF values were measured relative to arachidonic acid. Thin layer chromatography plates (TLC) were exposed on LKB ultrafilm for about 24 hours. Partial identification of the spots were carried out by running standards (PGA2, PGB2, PGE2, PGF2c, PXB2, arachidonic acid) in the same solvent system. Quantitative results were obtained by scanning the developed film with a transmission densitometer (EC Apparatus 910) interfaced with a Hewlett Packard 3390A integrator.
The activity of the substances of the cyclooxygenase is quantified by the 2 spots corresponding to PGE2 and TxB2 (ratio PGE2 /TxB2).

[4] = molecular target: T1, 5-lipoxygenase (human leucocytes); assay: Experiment No. 1: inhibition of 5-lipoxygenase in human leucocytes stimulated by ionophore (5-HETE, LTB4); assay type: cell-based; settings: Experiment No. 1, 5-HETE, ionophore A23187 alone
Procedure: (§7) (a) Inhibition on 5- and 12- lipoxygenases human polynuclear
(§8) Protocol for experiment No. 1:
(§9) 2. Stimulation with 1 μg ionophore (A23187)/ml for 4 minutes.
(§10) 3. Stopping of the incubation with 1 volume of methanol.
(§11) 4. Analysis by RP-HPLC, colomn C18, 5 μm.
(§12) 5. Measurement of the height of the peaks and comparison with the internal standard (PGB2).

[5] = molecular target: T5, 12-lipoxygenase (human leucocytes) (Homo sapiens, UniProt P18054); assay: Experiment No. 1: inhibition of 12-lipoxygenase in human leucocytes stimulated by ionophore (12-HETE); assay type: cell-based; settings: Experiment No. 1, 12-HETE, ionophore A23187 alone
T5 construct: human leucocytic lipoxygenase; endogenous in cells; host or cells: human (polynuclear) leucocytes
T5 sequence (P18054 1-663): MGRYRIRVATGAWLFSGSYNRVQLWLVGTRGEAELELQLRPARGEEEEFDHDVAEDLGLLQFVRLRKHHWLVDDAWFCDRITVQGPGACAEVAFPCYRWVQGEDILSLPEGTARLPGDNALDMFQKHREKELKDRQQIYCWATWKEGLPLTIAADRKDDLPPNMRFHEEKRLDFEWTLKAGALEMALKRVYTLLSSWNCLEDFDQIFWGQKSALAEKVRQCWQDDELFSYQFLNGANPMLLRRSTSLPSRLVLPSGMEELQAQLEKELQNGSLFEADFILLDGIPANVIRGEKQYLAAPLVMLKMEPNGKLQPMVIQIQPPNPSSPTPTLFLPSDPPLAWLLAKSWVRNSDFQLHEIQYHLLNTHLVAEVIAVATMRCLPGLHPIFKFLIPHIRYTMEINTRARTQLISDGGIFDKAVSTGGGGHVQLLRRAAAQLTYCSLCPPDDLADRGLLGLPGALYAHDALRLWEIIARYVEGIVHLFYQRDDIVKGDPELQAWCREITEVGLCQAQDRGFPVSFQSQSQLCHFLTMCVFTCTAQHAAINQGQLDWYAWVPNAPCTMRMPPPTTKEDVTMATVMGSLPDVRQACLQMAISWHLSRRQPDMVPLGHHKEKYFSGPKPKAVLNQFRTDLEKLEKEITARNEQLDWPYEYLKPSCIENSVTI
Procedure: as §7, §8, §9, §10, §11, §12

xanthine oxidase = xanthine oxidase (Bos taurus, UniProt P80457); assay: In vitro screening of compounds as potential inhibitors of xanthine oxidase; assay type: biochemical; settings: xanthine oxidase 0.01 units/ml, xanthine 5.10^-5 M, pH 7.4
xanthine oxidase, sequence (P80457 whole entry): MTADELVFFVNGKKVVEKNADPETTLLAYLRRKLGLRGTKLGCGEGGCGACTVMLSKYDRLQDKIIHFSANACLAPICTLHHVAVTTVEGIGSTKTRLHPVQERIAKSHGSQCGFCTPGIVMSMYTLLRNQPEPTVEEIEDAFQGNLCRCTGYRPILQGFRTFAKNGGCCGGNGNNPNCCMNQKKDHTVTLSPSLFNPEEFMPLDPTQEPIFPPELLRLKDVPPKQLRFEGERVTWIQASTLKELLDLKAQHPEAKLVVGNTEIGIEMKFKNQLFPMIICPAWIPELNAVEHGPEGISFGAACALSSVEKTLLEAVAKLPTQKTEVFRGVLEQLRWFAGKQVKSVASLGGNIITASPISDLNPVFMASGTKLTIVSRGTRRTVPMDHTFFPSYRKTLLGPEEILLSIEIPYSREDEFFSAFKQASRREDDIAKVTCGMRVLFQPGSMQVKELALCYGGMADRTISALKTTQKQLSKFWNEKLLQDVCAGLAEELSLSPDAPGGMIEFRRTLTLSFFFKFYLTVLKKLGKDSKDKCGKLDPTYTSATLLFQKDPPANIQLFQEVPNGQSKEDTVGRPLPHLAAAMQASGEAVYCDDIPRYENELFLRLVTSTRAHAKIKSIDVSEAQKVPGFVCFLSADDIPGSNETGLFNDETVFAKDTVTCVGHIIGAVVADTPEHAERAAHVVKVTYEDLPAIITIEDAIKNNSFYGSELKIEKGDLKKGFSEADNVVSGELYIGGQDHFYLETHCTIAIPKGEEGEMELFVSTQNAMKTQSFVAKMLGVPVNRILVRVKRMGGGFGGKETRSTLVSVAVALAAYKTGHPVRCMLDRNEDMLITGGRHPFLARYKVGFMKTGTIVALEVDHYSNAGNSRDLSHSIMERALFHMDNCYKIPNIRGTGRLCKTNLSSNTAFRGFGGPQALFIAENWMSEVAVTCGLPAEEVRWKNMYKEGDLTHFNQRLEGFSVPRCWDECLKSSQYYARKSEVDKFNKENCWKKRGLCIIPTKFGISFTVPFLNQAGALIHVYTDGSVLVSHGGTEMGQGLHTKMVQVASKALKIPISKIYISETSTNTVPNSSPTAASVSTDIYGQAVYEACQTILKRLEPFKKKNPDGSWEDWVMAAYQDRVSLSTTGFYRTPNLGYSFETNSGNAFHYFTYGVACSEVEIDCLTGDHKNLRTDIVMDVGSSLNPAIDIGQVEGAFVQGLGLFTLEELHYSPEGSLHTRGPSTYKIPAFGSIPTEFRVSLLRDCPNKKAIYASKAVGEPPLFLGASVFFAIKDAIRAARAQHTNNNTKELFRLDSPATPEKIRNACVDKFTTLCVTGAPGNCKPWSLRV
Source text: A unit of activity was defined as a change of 0.001 units/minute.

[6] = molecular target: T5, 12-lipoxygenase (human leucocytes); assay: Experiment No. 2: inhibition of 12-lipoxygenase in human leucocytes stimulated by ionophore and arachidonic acid (12-HETE); assay type: cell-based; settings: Experiment No. 2, 12-HETE, ionophore A23187 and arachidonic acid
Procedure: as §1, §2, §3, §4, §5, §6

[7] = Experiment No. 2, 5-HETE, ionophore A23187 and arachidonic acid, read-out: IC50 5-HETE
[8] = Experiment No. 2, LTB4, ionophore A23187 and arachidonic acid, read-out: IC50 LTB4 (converted)

Oc1ccc(S)cc1O [drawing 32]
IC50 [1, 7]: 1 µM | IC50 [1, 8]: 3 µM | IC50 [2]: 50 µM | IC50 (HHT (human leucocytes)): 20 µM

CCCCCCC(C)Sc1ccc(O)c(O)c1 (centres unmarked) [drawing 9]
IC50 (soybean lipoxygenase): 27.6 µM

CCCCCCC(C)Sc1ccc(O)c(O)c1 (centres unmarked) [drawing 10]
IC50 (soybean lipoxygenase): 24.5 µM

CCC(C)CSc1ccc(O)c(O)c1 (centres unmarked) [drawing 21]
IC50 [3]: 4.31 µM

Oc1ccc(S)cc1O [drawing 20]
IC50 [3]: 9.23 µM

CC1CCC(C(C)C)C(Sc2ccc(O)c(O)c2)C1 (centres unmarked) [drawing 8]
IC50 (soybean lipoxygenase): 24.1 µM

CCC(C)CSc1ccc(O)c(O)c1 (centres unmarked) [drawing 30]
IC50 [4]: 1 µM | IC50 [5]: 1 µM

CCCCCCC(C)Sc1ccc(O)c(O)c1 (centres unmarked) [drawing 29]
IC50 (xanthine oxidase): 557 µM

S=C(N=Nc1ccccc1)NNc1ccccc1 [Diphenylthiocarbazone, reference compound]
IC50 (soybean lipoxygenase): 1.61 µM

Nc1nc2ncc(CNc3ccc(C(=O)N[C@@H](CCC(=O)O)C(=O)O)cc3)nc2c(=O)[nH]1 [Folic acid, reference compound]
IC50 (xanthine oxidase): 0.676 µM

CCCCCCC(C)Sc1ccc(O)c(O)c1 (centres unmarked) [drawing 34]
IC50 [1, 7]: 1 µM | IC50 [1, 8]: 1 µM | IC50 [6]: 2 µM | IC50 [2]: 10 µM | IC50 (HHT (human leucocytes)): 2 µM

Oc1ccc(S)cc1O [drawing 31]
IC50 [4]: 2 µM | IC50 [5]: 2 µM

CCC(C)CSc1ccc(O)c(O)c1 (centres unmarked) [drawing 33]
IC50 [1, 8]: 3 µM | IC50 [6]: 10 µM | IC50 [2]: 10 µM | IC50 (HHT (human leucocytes)): 50 µM

N=C(N)Sc1ccc(O)c(O)c1
IC50 (concentration of 50% inhibition) (soybean lipoxygenase): Not active

CCC(C)CSc1ccc(O)c(O)c1 (centres unmarked) [drawing 28]
IC50 (xanthine oxidase): 511 µM

CC1CCC(C(C)C)C(Sc2ccc(O)c(O)c2)C1 (centres unmarked) [drawing 22]
IC50 [3]: 16.8 µM

Oc1ccc(S)cc1O [drawing 6]
IC50 (soybean lipoxygenase): 93 µM

CCC(C)CSc1ccc(O)c(O)c1 (centres unmarked) [drawing 7]
IC50 (soybean lipoxygenase): 104 µM

Oc1ccc(S)cc1O [drawing 27]
IC50 (xanthine oxidase): 237 µM

CCCCCCC(C)Sc1ccc(O)c(O)c1 (centres unmarked) [drawing 23]
IC50 [3]: 3.46 µM
